The subject of series [1] is Simplexvirus. The series is described as follows: Antiviral activity against Herpes simplex virus infected african green monkey Vero cells assessed as reduction virus-induced cytopathic effect at 50 ug/mL after 96 hrs measured as viral titer per ml by microscopy. Format: functional.
The test system of series [2] is Semliki Forest virus. The series is described as follows: Antiviral activity against Semliki forest virus infected african green monkey Vero cells assessed as reduction in virus-induced cytopathic effect at 100 ug/mL after 96 hrs measured as viral titer per ml by microscopy. Format: functional.
Series [3] concerns Semliki Forest virus. The series is described as follows: Antiviral activity against Semliki forest virus infected african green monkey Vero cells assessed as reduction in virus-induced cytopathic effect at 50 ug/mL after 96 hrs measured as viral titer per ml by microscopy. Format: functional.
Series [4] concerns Enterovirus C. In words: Antiviral activity against Poliovirus infected african green monkey Vero cells assessed as reduction in virus-induced cytopathic effect at 100 ug/mL after 96 hrs measured as viral titer per ml by microscopy. It counts as functional.
Series [5] concerns Enterovirus C. In words: Antiviral activity against Poliovirus infected african green monkey Vero cells assessed as reduction in virus-induced cytopathic effect at 50 ug/mL after 96 hrs measured as viral titer per ml by microscopy. Format: functional.
In series [6] the test system is Measles morbillivirus. The series is described as follows: Antiviral activity against Measles virus infected african green monkey Vero cells assessed as reduction in virus-induced cytopathic effect at 100 ug/mL after 96 hrs measured as viral titer per ml by microscopy. Format: functional.
In series [7] the test system is Measles morbillivirus. In words: Antiviral activity against Measles virus infected african green monkey Vero cells assessed as reduction in virus-induced cytopathic effect at 50 ug/mL after 96 hrs measured as viral titer per ml by microscopy. It counts as functional.
Series [8] relates to Simplexvirus. The series is described as follows: Antiviral activity against Herpes simplex virus infected african green monkey Vero cells assessed as reduction in virus-induced cytopathic effect at 100 ug/mL after 96 hrs measured as viral titer per ml by microscopy. Format: functional.
The test system of series [9] is Simplexvirus. In words: Antiviral activity against Herpes simplex virus infected african green monkey Vero cells assessed as reduction in virus-induced cytopathic effect at 20 ug/mL after 96 hrs measured as viral titer per ml by microscopy. Format: functional.
Series [10] deals with Simplexvirus. In words: Antiviral activity against Herpes simplex virus infected african green monkey Vero cells assessed as reduction in virus-induced cytopathic effect at 10 ug/mL after 96 hrs measured as viral titer per ml by microscopy. Format: functional.
In series [11] the test system is Simplexvirus. The series is described as follows: Antiviral activity against Herpes simplex virus infected african green monkey Vero cells assessed as reduction in virus-induced cytopathic effect at 5 ug/mL after 96 hrs measured as viral titer per ml by microscopy. Format: functional.
In series [12] the test system is Simplexvirus. The series is described as follows: Antiviral activity against Herpes simplex virus infected african green monkey Vero cells assessed as reduction in virus-induced cytopathic effect at 2.5 ug/mL after 96 hrs measured as viral titer per ml by microscopy. It counts as functional.
For series [13], the system named is Semliki Forest virus. The series is described as follows: Antiviral activity against Semliki forest virus infected african green monkey Vero cells assessed as reduction in virus-induced cytopathic effect at 20 ug/mL after 96 hrs measured as viral titer per ml by microscopy. Format: functional.
Series [14] concerns Semliki Forest virus. In words: Antiviral activity against Semliki forest virus infected african green monkey Vero cells assessed as reduction in virus-induced cytopathic effect at 10 ug/mL after 96 hrs measured as viral titer per ml by microscopy. Format: functional.
For series [15], the system named is Semliki Forest virus. In words: Antiviral activity against Semliki forest virus infected african green monkey Vero cells assessed as reduction in virus-induced cytopathic effect at 5 ug/mL after 96 hrs measured as viral titer per ml by microscopy. It counts as functional.
Series [16] deals with Semliki Forest virus. The series is described as follows: Antiviral activity against Semliki forest virus infected african green monkey Vero cells assessed as reduction in virus-induced cytopathic effect at 2.5 ug/mL after 96 hrs measured as viral titer per ml by microscopy. It counts as functional.
For series [17], the system named is Enterovirus C. The series is described as follows: Antiviral activity against Poliovirus infected african green monkey Vero cells assessed as reduction in virus-induced cytopathic effect at 20 ug/mL after 96 hrs measured as viral titer per ml by microscopy. Format: functional.
The test system of series [18] is Enterovirus C. In words: Antiviral activity against Poliovirus infected african green monkey Vero cells assessed as reduction in virus-induced cytopathic effect at 10 ug/mL after 96 hrs measured as viral titer per ml by microscopy. It counts as functional.
Series [19] has as its system Enterovirus C. The series is described as follows: Antiviral activity against Poliovirus infected african green monkey Vero cells assessed as reduction in virus-induced cytopathic effect at 5 ug/mL after 96 hrs measured as viral titer per ml by microscopy. It counts as functional.
Series [20] has as its system Enterovirus C. In words: Antiviral activity against Poliovirus infected african green monkey Vero cells assessed as reduction in virus-induced cytopathic effect at 2.5 ug/mL after 96 hrs measured as viral titer per ml by microscopy. Format: functional.
The subject of series [21] is Measles morbillivirus. The series is described as follows: Antiviral activity against Measles virus infected african green monkey Vero cells assessed as reduction in virus-induced cytopathic effect at 20 ug/mL after 96 hrs measured as viral titer per ml by microscopy. It counts as functional.
Series [22] relates to Measles morbillivirus. In words: Antiviral activity against Measles virus infected african green monkey Vero cells assessed as reduction in virus-induced cytopathic effect at 10 ug/mL after 96 hrs measured as viral titer per ml by microscopy. Format: functional.
Series [23] deals with Measles morbillivirus. The series is described as follows: Antiviral activity against Measles virus infected african green monkey Vero cells assessed as reduction in virus-induced cytopathic effect at 5 ug/mL after 96 hrs measured as viral titer per ml by microscopy. Format: functional.
Series [24] has as its system Measles morbillivirus. The series is described as follows: Antiviral activity against Measles virus infected african green monkey Vero cells assessed as reduction in virus-induced cytopathic effect at 2.5 ug/mL after 96 hrs measured as viral titer per ml by microscopy. Format: functional.
The test system of series [25] is Enterovirus C. The series is described as follows: Antiviral activity against Poliovirus infected african green monkey Vero cells assessed as reduction of virus-induced cytopathic effect at 1 ug/mL after 96 hrs by microscopy. It counts as functional, organism-based.
Series [26] concerns Vero. In words: Cytotoxicity against Poliovirus infected african green monkey Vero cells assessed as monolayer destruction at > 25 ug/mL. It counts as cell-based. The conditions noted are these: chlorocebus sabaeus.
The subject of series [27] is Vero. The series is described as follows: Cytotoxicity against Herpes simplex virus infected african green monkey Vero cells assessed as monolayer destruction at 100 ug/mL. It counts as cell-based. The following applies: chlorocebus sabaeus.
Series [28] deals with Vero. The series is described as follows: Cytotoxicity against Semliki forest virus infected african green monkey Vero cells assessed as monolayer destruction at 100 ug/mL. Format: cell-based. The conditions noted are these: chlorocebus sabaeus.
Series [29] relates to Vero. The series is described as follows: Cytotoxicity against Poliovirus infected african green monkey Vero cells assessed as monolayer destruction at 100 ug/mL. It counts as cell-based. The conditions noted are these: chlorocebus sabaeus.
In series [30] the test system is Vero. In words: Cytotoxicity against Measles virus infected african green monkey Vero cells assessed as monolayer destruction at 100 ug/mL. Format: cell-based. The conditions noted are these: chlorocebus sabaeus.
The test system of series [31] is Vero. The series is described as follows: Cytotoxicity against Herpes simplex virus infected african green monkey Vero cells assessed as monolayer destruction at 50 ug/mL. Format: cell-based. The conditions noted are these: chlorocebus sabaeus.
In series [32] the test system is Vero. The series is described as follows: Cytotoxicity against Semliki forest virus infected african green monkey Vero cells assessed as monolayer destruction at 50 ug/mL. Format: cell-based. The following applies: chlorocebus sabaeus.
In series [33] the test system is Vero. In words: Cytotoxicity against Poliovirus infected african green monkey Vero cells assessed as monolayer destruction at 50 ug/mL. Format: cell-based. The conditions noted are these: chlorocebus sabaeus.
Series [34] deals with Vero. In words: Cytotoxicity against Measles virus infected african green monkey Vero cells assessed as monolayer destruction at 50 ug/mL. Format: cell-based. The following applies: chlorocebus sabaeus.
Series [35] concerns Vero. The series is described as follows: Cytotoxicity against african green monkey Vero cells assessed as monolayer destruction at 10 ug/mL after 24 hrs by trypan blue exclusion test. Format: cell-based. The conditions noted are these: chlorocebus sabaeus.
Series [36] concerns Vero. The series is described as follows: Cytotoxicity against african green monkey Vero cells assessed as monolayer destruction at 25 ug/mL after 24 hrs by trypan blue exclusion test. The conditions noted are these: chlorocebus sabaeus. It counts as cell-based.
Series [37] relates to Vero. The series is described as follows: Cytotoxicity against african green monkey Vero cells assessed as monolayer destruction at 50 ug/mL after 24 hrs by trypan blue exclusion test. Format: cell-based. The following applies: chlorocebus sabaeus.
Series [38] concerns Enterovirus C. The series is described as follows: Antiviral activity against Poliovirus infected african green monkey Vero cells assessed as reduction of virus-induced cytopathic effect at < 1 ug/mL after 4 days. Format: functional, organism-based.
For series [39], the system named is Enterovirus C. The series is described as follows: Antiviral activity against Poliovirus infected african green monkey Vero cells assessed as reduction of virus-induced cytopathic effect at 1 ug/mL after 4 days. It counts as functional, organism-based.
Series [40] in a line: Therapeutic index, ratio of cytotoxicity against african green monkey Vero cells to antiviral activity against Poliovirus. It counts as cell-based. The conditions noted are these: read-out: TI.
Series [41] has as its system Vero. The series is described as follows: Effect on african green monkey Vero cell growth assessed as doubling of cell generation at 1 ug/mL after 24 hrs by trypan blue exclusion test. Format: cell-based. The following applies: chlorocebus sabaeus.
Series [42] is described as follows: Therapeutic index, ratio of cytotoxicity against african green monkey Vero cells to antiviral activity against Herpes simplex virus. Format: cell-based. The following applies: read-out: TI.
Series [43] is described as follows: Therapeutic index, ratio of cytotoxicity against african green monkey Vero cells to antiviral activity against Semliki forest virus. It counts as cell-based. The following applies: read-out: TI.
A short description of series [44]: Therapeutic index, ratio of cytotoxicity against african green monkey Vero cells to antiviral activity against Measles virus. Format: cell-based. The following applies: read-out: TI.

The structures appear in SMILES notation. Activity calls are given as the source filed them. The rule behind the calls is not given here.

In the case of `CCOC(=O)c1cc(C(=O)O[C@H]2C[C@H]3CCN(C)[C@H]3[C@@H]3c4cc5c(cc4C(=O)O[C@H]32)OCO5)c(C)nc1C` [CLIVIAMARTINE], the pTCD50 in series [1] is given as 10; in [2], 10; in series [3], 1; in [4], 10; in [5], 1; in series [6], 1. The values for the pTCD50 in [7] and in series [8] were 1 and 10, respectively.
In the case of `O[C@H]1[C@H]2c3cc4c(cc3CN3CCC(=C[C@@H]1O)[C@H]23)OCO4` [LYCORINE], the pTCD50 in series [9] is listed as 1000; in [10], 1000; in series [11], 1000; in [12], 100; in series [13] it was 10000; in series [14] it was 1000. Further, the pTCD50 in series [15] was determined as 1000; in series [16] it was 100; in series [17] it was 10000; in [18], 1000; in series [19], 100; in series [20], 100. Further, the pTCD50 in [21] came out at 1000; in series [22] it was 1000; in series [23] it was 100; in series [24], 100. Moreover, the result in series [25] and in [39] was Active. Also, the Activity result in series [26], in [27], in series [28], in [29], in [30] and in series [31] was “Toxic” throughout. The Activity result in [32] is recorded as “Toxic”; in [33] it was “Toxic”; in series [34] it was “Toxic”; in [35], “Non-toxic”; in [36], “Non-toxic”; in series [37] it was “Toxic”. Further, in [41], the outcome was Active. In addition, the outcome in series [38] was inactive. Further, the selectivity ratio in series [40], in series [42], in series [43] and in [44] was 10 each time.
As for `CN1CC[C@@H]2C[C@H](O)[C@@H]3OC(=O)c4cc5c(cc4[C@H]3[C@@H]21)OCO5` [CLIVONINE], the pTCD50 in [1] turned out to be 1; in [2], 10; in series [3], 1; in [4], 10; in series [5], 1; in series [6], 1. The results for the pTCD50 in series [7] and in [8] were 1 and 10, respectively.
On to `Cc1nc(C)c(C(=O)O[C@H]2C[C@H]3CCN(C)[C@H]3[C@@H]3c4cc5c(cc4C(=O)O[C@H]32)OCO5)cc1C(=O)O[C@H]1C[C@H]2CCN(C)[C@H]2[C@@H]2c3cc4c(cc3C(=O)O[C@H]21)OCO4` [CLIVIMINE], for which the pTCD50 in [1] worked out at 1; in series [9] it was 1; in series [10] it was 1; in series [11], 1; in series [12], 1; in series [2], 10. Besides, the pTCD50 in series [3] turned out to be 1; in series [13] it was 1; in series [14] it was 1; in series [15], 1; in series [16] it was 1; in series [4], 10. Also, the pTCD50 in series [5], in series [17], in [18], in series [19], in series [20] and in series [6] was 1 in each case. The pTCD50 in [7], in series [21], in [22], in series [23], in [24] and in [8] was 1 each time.

For the origin of these results see ChEMBL document CHEMBL1151400, “Plant antiviral agents. III. Isolation of alkaloids from Clivia miniata Regel (Amaryllidaceae)” (J Nat Prod, 1982).
